# Source: ChEMBL document CHEMBL3132755, “Phage display libraries of differently sized bicyclic peptides” (Medchemcomm, 2013)
# Biological target: Urokinase-type plasminogen activator (Homo sapiens, UniProt P00749)
# Test: Inhibition of human uPA using Z-Gly-Gly-Arg-AMC as substrate after 30 mins by fluorescence assay
row,Ki [µM],Compound
1,4.77,CC(C)C[C@@H]1NC(=O)[C@@H](NC(=O)[C@H](C)N)CSCc2cc3cc(c2)CSC[C@@H](C(=O)NCC(=O)O)NC(=O)[C@H](CO)NC(=O)[C@@H]2CCCN2C(=O)[C@H](CCCNC(=N)N)NC(=O)[C@H](CCCNC(=N)N)NC(=O)[C@H](CC(N)=O)NC(=O)[C@H](CCC(=O)O)NC(=O)[C@H](CSC3)NC(=O)CNC(=O)[C@H](CCCNC(=N)N)NC(=O)[C@H](CCC(=O)O)NC(=O)CNC(=O)[C@H](CCC(N)=O)NC1=O
2,26.8,C[C@H](N)C(=O)N[C@H]1CSCc2cc3cc(c2)CSC[C@@H](C(=O)NCC(=O)O)NC(=O)[C@@H]2CCCN2C(=O)[C@H](Cc2ccccc2)NC(=O)[C@H](CCCNC(=N)N)NC(=O)[C@H](C)NC(=O)[C@H]([C@@H](C)O)NC(=O)[C@H](CSC3)NC(=O)[C@H](CC(=O)O)NC(=O)[C@H](CO)NC(=O)[C@H](Cc2cnc[nH]2)NC(=O)[C@H](CCCCN)NC1=O
3,23.5,CSCC[C@@H]1NC(=O)[C@H]([C@@H](C)O)NC(=O)[C@H](Cc2ccccc2)NC(=O)[C@H](CCCCN)NC(=O)[C@@H]2CSCc3cc(cc(c3)CSC[C@@H](C(=O)NCC(=O)O)NC1=O)CSC[C@H](NC(=O)[C@H](C)N)C(=O)N[C@@H](CCCNC(=N)N)C(=O)NCC(=O)NCC(=O)N2
4,0.71,C[C@H](N)C(=O)N[C@H]1CSCc2cc3cc(c2)CSC[C@@H](C(=O)NCC(=O)O)NC(=O)[C@@H]2CCCN2C(=O)CNC(=O)CNC(=O)[C@H](CCCNC(=N)N)NC(=O)CNC(=O)[C@H](CCCNC(=N)N)NC(=O)[C@H](CSC3)NC(=O)[C@H](CC(=O)O)NC(=O)[C@H]([C@@H](C)O)NC(=O)[C@H](C)NC(=O)[C@H](C)NC(=O)[C@H](Cc2cnc[nH]2)NC(=O)[C@H](CC(N)=O)NC1=O
5,1.48,CC(C)C[C@@H]1NC(=O)[C@H](CO)NC(=O)[C@H](Cc2ccccc2)NC(=O)[C@H](CCCCN)NC(=O)[C@H](Cc2c[nH]c3ccccc23)NC(=O)[C@H](CC(N)=O)NC(=O)[C@@H](NC(=O)[C@H](C)N)CSCc2cc3cc(c2)CSC[C@H](NC1=O)C(=O)N[C@@H](CCC(=O)O)C(=O)N[C@@H]([C@@H](C)O)C(=O)N[C@@H](CCC(N)=O)C(=O)N[C@@H](CCCNC(=N)N)C(=O)N[C@@H](CC(N)=O)C(=O)N[C@@H](CCC(N)=O)C(=O)N[C@H](C(=O)NCC(=O)O)CSC3
6,14.8,CSCC[C@@H]1NC(=O)[C@H](CCC(N)=O)NC(=O)[C@H](CO)NC(=O)[C@H](CO)NC(=O)[C@@H]2CCCN2C(=O)[C@H](CO)NC(=O)[C@@H]2CSCc3cc(cc(c3)CSC[C@@H](C(=O)NCC(=O)O)NC1=O)CSC[C@H](NC(=O)[C@H](C)N)C(=O)N[C@@H](CC(N)=O)C(=O)N[C@@H](CO)C(=O)N[C@@H](CCCNC(=N)N)C(=O)N[C@@H](Cc1ccccc1)C(=O)N[C@@H](C)C(=O)N[C@@H](CC(C)C)C(=O)N2
7,0.9,CC[C@H](C)[C@@H]1NC(=O)[C@H](CO)NC(=O)[C@H](CO)NC(=O)[C@H](CCCNC(=N)N)NC(=O)CNC(=O)[C@H](CCCNC(=N)N)NC(=O)[C@@H]2CSCc3cc(cc(c3)CSC[C@@H](C(=O)NCC(=O)O)NC1=O)CSC[C@H](NC(=O)[C@H](C)N)C(=O)N[C@@H]([C@@H](C)O)C(=O)N[C@@H](CCC(=O)O)C(=O)N[C@@H](Cc1ccccc1)C(=O)N[C@@H](CCC(N)=O)C(=O)N[C@@H]([C@@H](C)O)C(=O)N[C@@H](CC(=O)O)C(=O)N2
8,8.67,CC(C)C[C@@H]1NC(=O)[C@H]([C@@H](C)O)NC(=O)[C@H](CCCNC(=N)N)NC(=O)[C@H](C)NC(=O)[C@H]([C@@H](C)O)NC(=O)[C@@H]2CSCc3cc(cc(c3)CSC[C@@H](C(=O)NCC(=O)O)NC1=O)CSC[C@H](NC(=O)[C@H](C)N)C(=O)N[C@@H](CCCCN)C(=O)N[C@@H](CCC(N)=O)C(=O)N[C@@H](CO)C(=O)N[C@@H](C(C)C)C(=O)N2
9,48.7,CC(C)C[C@@H]1NC(=O)[C@H](C(C)C)NC(=O)[C@H](CCC(N)=O)NC(=O)[C@H]([C@@H](C)O)NC(=O)[C@H](C)NC(=O)[C@@H]2CCCN2C(=O)[C@@H]2CSCc3cc(cc(c3)CSC[C@@H](C(=O)NCC(=O)O)NC1=O)CSC[C@H](NC(=O)[C@H](C)N)C(=O)N[C@@H]([C@@H](C)O)C(=O)N[C@@H](C)C(=O)N[C@@H](CCCNC(=N)N)C(=O)N[C@@H]([C@@H](C)O)C(=O)N2
